Drawing on US9255094B2, “Pyrido[4,3-B]indoles and methods of use” (Medivation Technologies, Inc., priority 2009, dated 2016), this text covers inhibition for three molecules.

Assay [1] addresses T1, human recombinant adrenergic α2C receptor (Homo sapiens, UniProt P18825).
T1 construct: expressed in transfected cells; host or cells: insect Sf9 cells
T1 sequence (P18825 1-462): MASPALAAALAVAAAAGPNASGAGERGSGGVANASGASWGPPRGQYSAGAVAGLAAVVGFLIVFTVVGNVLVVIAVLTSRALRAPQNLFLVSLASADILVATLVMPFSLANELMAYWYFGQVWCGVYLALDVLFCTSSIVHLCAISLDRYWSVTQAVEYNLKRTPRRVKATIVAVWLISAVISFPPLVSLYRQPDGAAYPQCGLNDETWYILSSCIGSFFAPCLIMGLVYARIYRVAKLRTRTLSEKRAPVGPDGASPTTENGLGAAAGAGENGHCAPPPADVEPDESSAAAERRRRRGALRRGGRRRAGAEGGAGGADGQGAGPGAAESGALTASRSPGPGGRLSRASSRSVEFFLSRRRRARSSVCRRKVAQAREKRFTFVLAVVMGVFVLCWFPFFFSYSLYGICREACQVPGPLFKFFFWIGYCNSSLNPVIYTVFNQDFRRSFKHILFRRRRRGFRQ
Briefly: Adrenergic α2C radioligand binding assay ([3H]MK-912). The following applies: compound at 0.1 μM; 1 nM [3H]MK-912; insect Sf9 cells; read-out: Percent Inhibition of ligand binding, Adrenergic (0.1 μM) a2C. How it is done: To evaluate in radioligand binding assays the activity of compounds of the invention, human recombinant adrenergic α2C receptor expressed in insect Sf9 cells (Uhlen S et al. J. Pharmacol. Exp. Ther. 271:1558, 1994) in a modified Tris-HCl buffer (50 mM Tris-HCl, pH 7.4, 12.5 mM MgCl2, 2 mM EDTA) is used. Compounds of the invention are incubated with 1 nM [^3H]MK-912 for 60 min at 25° C. Non-specific binding is estimated in the presence of 10 μM WB-4101. Receptor proteins are filtered and washed, the filters are then counted to determine [^3H]MK-912 specifically bound. Compounds are screened at 1 μM or lower, using 1% DMSO as vehicle. Compounds of the invention are tested in this biochemical assay and percent inhibition of specific binding is determined.

The target of assay [2] is T2, human recombinant serotonin (5-Hydroxytryptamine) 5-HT2A receptor (Homo sapiens, UniProt P28223).
T2 construct: expressed in transfected cells; host or cells: Chinese hamster ovary (CHO-K1) cells
Kind of assay: Serotonin 5-HT2A radioligand binding assay ([3H]Ketanserin). The following applies: 0.5 nM [3H]Ketanserin, CHO-K1 cells; for inhibition at 1 µM: compound at 1 μM, read-out: Percent Inhibition of ligand binding, Serotonin (1 μM) 5-HT2A. How it is done: Compounds of the invention were incubated with 0.5 nM [^3H]Ketanserin for 60 min at 25° C. Non-specific binding was estimated in the presence of 1 μM Mianserin. Receptor proteins were filtered and washed, the filters were then counted to determine [^3H]Ketanserin specifically bound. Compounds were screened at 1 μM or lower, using 1% DMSO as vehicle. Biochemical assay results are presented as the percent inhibition of specific binding in Table 4.

The target in assay [3] is T3, rat adrenergic α1A receptor (Rattus norvegicus, UniProt P43140).
T3 construct: from tissue; host or cells: Wistar Rat submaxillary glands
T3 sequence (P43140 1-466): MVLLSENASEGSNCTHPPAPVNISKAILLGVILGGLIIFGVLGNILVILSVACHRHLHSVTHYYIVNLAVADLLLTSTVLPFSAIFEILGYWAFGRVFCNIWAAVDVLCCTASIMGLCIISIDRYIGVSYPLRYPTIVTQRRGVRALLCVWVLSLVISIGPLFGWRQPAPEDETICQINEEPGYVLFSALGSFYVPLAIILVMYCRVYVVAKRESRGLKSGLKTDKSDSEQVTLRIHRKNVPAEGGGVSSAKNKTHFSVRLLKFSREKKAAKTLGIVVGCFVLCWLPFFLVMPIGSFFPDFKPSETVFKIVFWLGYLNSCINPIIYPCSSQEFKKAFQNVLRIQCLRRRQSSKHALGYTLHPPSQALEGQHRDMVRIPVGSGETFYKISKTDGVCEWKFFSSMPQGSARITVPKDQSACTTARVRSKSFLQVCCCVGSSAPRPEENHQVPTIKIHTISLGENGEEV
Kind of assay: Adrenergic α1A radioligand binding assay ([3H]Prozosin). The following applies: compound at 0.1 μM; 0.25 nM [3H]Prozosin; Wistar Rat submaxillary glands; read-out: Percent Inhibition of ligand binding, Adrenergic (0.1 μM) a1A. The protocol:
To evaluate in radioligand binding assays the activity of compounds of the invention, rat adrenergic α1A receptor obtained from Wistar Rat submaxillary glands (Michel, A. D. et al., Br. J. Pharmacol. 98:883, 1989) in a modified Tris-HCl buffer (50 mM Tris-HCl buffer, pH 7.4, 0.5 mM EDTA) is used. Compounds of the invention are incubated with 0.25 nM [^3H]Prozosin for 60 min at 25° C. Non-specific binding is estimated in the presence of 10 μM phentolamine. Receptor proteins are filtered and washed, the filters are then counted to determine [^3H]Prozosin specifically bound. Compounds of the invention are screened at 1 μM or lower, using 1% DMSO as vehicle. Compounds of the invention are tested in this biochemical assay and percent inhibition of specific binding is determined.

Assay [4] concerns the target human recombinant dopamine D2L receptor (Homo sapiens, UniProt P14416). Kind of assay: Dopamine D2L radioligand binding assay ([3H]Spiperone). To be noted: compound at 1 μM, 0.16 nM [3H]Spiperone, CHO cells, read-out: Percent Inhibition of ligand binding, Dopamine (1μM). How it is done: Compounds of the invention were incubated with 0.16 nM [^3H]Spiperone for 120 min at 25° C. Non-specific binding was estimated in the presence of 10 μM Haloperidol. Receptor proteins were filtered and washed, the filters were then counted to determine [^3H]Spiperone specifically bound. Compounds were screened at 1 μM or lower, using 1% DMSO as vehicle. Biochemical assay results are presented as the percent inhibition of specific binding in Table 3.

In assay [5] the target is T4, human recombinant serotonin (5-Hydroxytryptamine) 5-HT6 receptor (Homo sapiens, UniProt P50406).
T4 construct: expressed in transfected cells; host or cells: human HeLa cells
Briefly: Serotonin 5-HT6 radioligand binding assay ([3H]LSD). The following applies: compound at 1 μM, HeLa cells, read-out: Percent Inhibition of ligand binding, Serotonin (1 μM) 5-HT6. The protocol: Compounds of the invention were incubated with 1.5 nM [3H]Lysergic acid diethylamide (LSD) for 120 min at 37° C. […] Receptor proteins were filtered and washed, the filters were then counted to determine [3H]LSD specifically bound. Compounds were screened at 1 μM or lower, using 1% DMSO as vehicle. Biochemical assay results are presented as the percent inhibition of specific binding in Table 4.

Assay [6] addresses T5, human recombinant serotonin (5-Hydroxytryptamine) 5-HT2C receptor (Homo sapiens, UniProt P28335).
T5 construct: expressed in transfected cells; host or cells: Chinese hamster ovary (CHO-K1) cells
T5 sequence (P28335 33-458): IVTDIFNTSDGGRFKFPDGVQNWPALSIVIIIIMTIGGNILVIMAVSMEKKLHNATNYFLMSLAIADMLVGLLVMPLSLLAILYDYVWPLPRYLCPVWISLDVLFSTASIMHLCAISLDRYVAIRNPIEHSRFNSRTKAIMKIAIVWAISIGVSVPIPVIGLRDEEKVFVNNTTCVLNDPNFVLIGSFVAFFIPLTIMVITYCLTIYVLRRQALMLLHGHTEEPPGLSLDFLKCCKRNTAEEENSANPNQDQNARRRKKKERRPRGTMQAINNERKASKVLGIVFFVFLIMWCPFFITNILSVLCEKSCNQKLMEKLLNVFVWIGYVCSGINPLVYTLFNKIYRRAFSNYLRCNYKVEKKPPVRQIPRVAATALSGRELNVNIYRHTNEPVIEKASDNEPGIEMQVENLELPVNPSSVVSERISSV
Kind of assay: Serotonin 5-HT2C radioligand binding assay ([3H]Mesulergine). The following applies: compound at 1 μM; 1 nM [3H]Mesulergine; CHO-K1 cells; read-out: Percent Inhibition of ligand binding, Serotonin (1 μM) 5-HT2C. How it is done:
Compounds of the invention were incubated with 1 nM [^3H]Mesulergine for 60 min at 25° C. Non-specific binding was estimated in the presence of 1 μM Mianserin. Receptor proteins were filtered and washed, the filters were then counted to determine [^3H]Mesulergine specifically bound. Compounds were screened at 1 μM or lower, using 1% DMSO as vehicle. Biochemical assay results are presented as the percent inhibition of specific binding in Table 4.

Assay [7] addresses human recombinant histamine H1 receptor (Homo sapiens, UniProt P35367). Briefly: Histamine H1 radioligand binding assay ([3H]Pyrilamine). The following applies: compound at 1 μM, receptor expressed in CHO cells. How it is done:
To evaluate in radioligand binding assays the activity of compounds of the invention, human recombinant histamine H1 receptor expressed in Chinese hamster ovary (CHO) cells (De Backer, M. D. et al., Biochem. Biophys. Res. Comm. 197(3):1601, 1993) in a modified Tris-HCl buffer (50 mM Tris-HCl, pH 7.4, 2 mM MgCl2, 100 mM NaCl, 250 mM Sucrose) was used. Compounds of the invention were incubated with 1.2 nM [^3H]Pyrilamine for 180 min at 25° C. Non-specific binding was estimated in the presence of 1 μM pyrilamine Receptor proteins were filtered and washed, the filters were then counted to determine [^3H]Pyrilamine specifically bound. Compounds were screened at 1 μM or lower, using 1% DMSO as vehicle. Biochemical assay results are presented as the percent inhibition of specific binding in Table 2.

In assay [8] the target is human recombinant serotonin (5-Hydroxytryptamine) 5-HT7 receptor (Homo sapiens, UniProt P34969). Briefly: Serotonin 5-HT7 radioligand binding assay ([3H]LSD). The following applies: compound at 1 μM; 5.5 nM [3H]LSD; CHO cells; read-out: Percent Inhibition of ligand binding, Serotonin (1 μM) 5-HT7. The protocol: Compounds of invention were incubated with 5.5 nM [^3H] Lysergic acid diethylamide (LSD) for 2 h at 25° C. […] Receptor proteins were filtered and washed, the filters were then counted to determine [^3H]LSD specifically bound. Compounds were screened at 1 μM or lower, using 1% DMSO as vehicle. Biochemical assay results are presented as the percent inhibition of specific binding in Table 4.

The target of assay [9] is T6, human recombinant histamine H2 receptor (Homo sapiens, UniProt P25021).
T6 construct: expressed in transfected cells; host or cells: Chinese hamster ovary (CHO) K1 cells
Briefly: Histamine H2 radioligand binding assay ([125I]Aminopotentidine). To be noted: compound at 1 μM; 0.1 nM [125I]Aminopotentidine; receptor expressed in CHO-K1 cells. How it is done:
To evaluate in radioligand binding assays the activity of compounds of the invention, human recombinant histamine H2 receptor expressed in Chinese hamster ovary (CHO) K1 cells (Ruat, M., Proc. Natl. Acad. Sci. USA. 87(5):1658, 1990) in a 50 mM Phosphate buffer, pH 7.4 was used. Compounds of the invention were incubated with 0.1 nM [^125I]Aminopotentidine for 120 min at 25° C. Non-specific binding was estimated in the presence of 3 μM Tiotidine. Receptor proteins were filtered and washed, the filters were then counted to determine [^125I]Aminopotentidine specifically bound. Compounds were screened at 1 μM or lower, using 1% DMSO as vehicle. Biochemical assay results are presented as the percent inhibition of specific binding in Table 2.

The structures appear in SMILES notation.

T2 sequence (P28223 whole entry): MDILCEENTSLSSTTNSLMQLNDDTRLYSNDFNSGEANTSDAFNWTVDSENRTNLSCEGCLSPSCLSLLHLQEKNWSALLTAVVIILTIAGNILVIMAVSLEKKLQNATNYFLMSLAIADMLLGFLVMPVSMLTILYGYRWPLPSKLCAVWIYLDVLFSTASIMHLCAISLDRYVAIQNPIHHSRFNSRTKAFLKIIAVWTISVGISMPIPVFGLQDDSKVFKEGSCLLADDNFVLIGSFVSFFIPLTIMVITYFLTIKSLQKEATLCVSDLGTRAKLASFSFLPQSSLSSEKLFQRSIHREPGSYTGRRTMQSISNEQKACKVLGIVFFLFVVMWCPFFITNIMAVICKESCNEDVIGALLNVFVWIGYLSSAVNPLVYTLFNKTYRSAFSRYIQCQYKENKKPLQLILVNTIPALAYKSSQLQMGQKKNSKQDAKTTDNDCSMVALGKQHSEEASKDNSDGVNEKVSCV
Chain of human recombinant dopamine D2L receptor (P14416 whole entry): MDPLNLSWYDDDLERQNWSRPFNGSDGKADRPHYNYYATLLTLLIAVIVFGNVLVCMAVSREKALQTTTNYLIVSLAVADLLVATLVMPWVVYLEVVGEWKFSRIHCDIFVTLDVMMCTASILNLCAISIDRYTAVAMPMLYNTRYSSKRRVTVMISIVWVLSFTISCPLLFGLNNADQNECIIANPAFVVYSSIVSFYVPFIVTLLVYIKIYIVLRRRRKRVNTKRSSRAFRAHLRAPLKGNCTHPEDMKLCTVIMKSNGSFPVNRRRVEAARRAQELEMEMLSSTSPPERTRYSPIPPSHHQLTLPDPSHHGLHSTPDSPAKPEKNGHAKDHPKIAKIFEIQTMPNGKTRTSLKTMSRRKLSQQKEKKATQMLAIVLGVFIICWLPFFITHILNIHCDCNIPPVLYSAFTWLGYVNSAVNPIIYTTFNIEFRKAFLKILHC
T6 sequence (P25021 whole entry): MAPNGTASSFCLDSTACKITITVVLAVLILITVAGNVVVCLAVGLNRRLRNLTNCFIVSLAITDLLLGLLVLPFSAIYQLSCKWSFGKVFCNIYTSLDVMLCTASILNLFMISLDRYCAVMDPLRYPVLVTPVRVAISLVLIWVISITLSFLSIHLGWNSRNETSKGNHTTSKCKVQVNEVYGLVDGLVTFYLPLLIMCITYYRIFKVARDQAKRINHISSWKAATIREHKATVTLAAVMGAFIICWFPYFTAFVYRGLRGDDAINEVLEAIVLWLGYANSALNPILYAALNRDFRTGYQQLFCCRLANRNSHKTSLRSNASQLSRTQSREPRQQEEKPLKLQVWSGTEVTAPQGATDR
Chain of human recombinant serotonin (5-Hydroxytryptamine) 5-HT7 receptor (P34969 whole entry): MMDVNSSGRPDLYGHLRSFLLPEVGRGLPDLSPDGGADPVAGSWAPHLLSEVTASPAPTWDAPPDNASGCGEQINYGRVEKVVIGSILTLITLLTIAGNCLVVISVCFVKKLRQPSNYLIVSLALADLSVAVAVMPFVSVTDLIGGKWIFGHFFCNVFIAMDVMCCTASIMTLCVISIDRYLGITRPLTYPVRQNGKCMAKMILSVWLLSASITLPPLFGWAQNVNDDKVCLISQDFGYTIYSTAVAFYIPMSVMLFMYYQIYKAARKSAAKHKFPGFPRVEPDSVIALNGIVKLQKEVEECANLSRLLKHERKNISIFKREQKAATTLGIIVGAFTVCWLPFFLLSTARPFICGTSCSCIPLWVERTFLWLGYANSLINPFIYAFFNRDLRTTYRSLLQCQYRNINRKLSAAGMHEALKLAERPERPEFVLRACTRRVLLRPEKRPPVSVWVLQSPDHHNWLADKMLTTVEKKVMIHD
T4 sequence (P50406 whole entry): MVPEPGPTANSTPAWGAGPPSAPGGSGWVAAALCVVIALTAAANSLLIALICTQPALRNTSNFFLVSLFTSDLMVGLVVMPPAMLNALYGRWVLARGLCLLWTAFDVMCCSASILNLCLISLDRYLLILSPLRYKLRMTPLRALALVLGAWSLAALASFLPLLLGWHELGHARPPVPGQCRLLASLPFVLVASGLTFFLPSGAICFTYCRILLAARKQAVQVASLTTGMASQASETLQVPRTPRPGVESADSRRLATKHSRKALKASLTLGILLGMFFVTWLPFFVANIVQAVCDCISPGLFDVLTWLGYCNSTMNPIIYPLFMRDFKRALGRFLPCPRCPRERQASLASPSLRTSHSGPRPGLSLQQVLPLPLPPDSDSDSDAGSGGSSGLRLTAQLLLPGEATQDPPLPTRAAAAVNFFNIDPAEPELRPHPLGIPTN
Chain of human recombinant histamine H1 receptor (P35367 whole entry): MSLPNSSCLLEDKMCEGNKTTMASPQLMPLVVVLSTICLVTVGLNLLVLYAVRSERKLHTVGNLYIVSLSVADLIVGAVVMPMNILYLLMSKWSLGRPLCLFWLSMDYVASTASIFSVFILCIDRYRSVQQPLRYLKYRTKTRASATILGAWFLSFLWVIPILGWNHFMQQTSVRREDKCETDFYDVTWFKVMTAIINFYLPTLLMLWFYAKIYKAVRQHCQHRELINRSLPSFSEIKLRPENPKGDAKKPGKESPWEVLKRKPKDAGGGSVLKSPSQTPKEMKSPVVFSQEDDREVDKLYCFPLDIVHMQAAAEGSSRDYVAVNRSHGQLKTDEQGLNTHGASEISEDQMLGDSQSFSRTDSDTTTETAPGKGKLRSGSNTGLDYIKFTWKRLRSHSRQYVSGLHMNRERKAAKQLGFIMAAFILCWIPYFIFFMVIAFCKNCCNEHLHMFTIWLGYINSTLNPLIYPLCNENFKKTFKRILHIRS

Usually inhibition stands for the relative decrease from the control value, in per cent. Consider `CN1CCc2c(c3cccc(Cl)c3n2CC(C)(O)c2ccncc2)C1` (stereo not shown) [Compound 1-10, 1-(6-chloro-2-methyl-3,4-dihydro-1H-pyrido[4,3-b]indol-5(2H)-yl)-2-(pyridin-4-yl)propan-2-ol], for which the inhibition at 0.1 µM in assay [1] was 19%; in assay [3], -8%. Moreover, in assay [2], the inhibition at 1 µM is 91%.

For `COc1ccc([C@@](C)(O)Cn2c3c(c4cc(C)ccc42)CN(C)CC3)cc1` [Compound 1-19, (R)-1-(2,8-Dimethyl-3,4-dihydro-1H-pyrido[4,3-b]indol-5(2H)-yl)-2-(4-methoxyphenyl)propan-2-ol], the inhibition at 0.1 µM came out at 16% in assay [1]; 98% in assay [2] (compound at 0.1 μM, read-out: Percent Inhibition of ligand binding, Serotonin (0.1 μM) 5-HT2A); 20% in assay [3].

For the molecule `Cc1ccc2c(c1)c1c(n2CCc2ccc(C)nc2)CCN(CCCCO)C1` [Compound 1-43, 4-(8-methyl-5-(2-(6-methylpyridin-3-yl)ethyl)-3,4-dihydro-1H-pyrido[4,3-b]indol-2(5H)-yl)butan-1-ol], the inhibition at 1 µM is 10% in assay [4]; 22% in assay [5]; 49% in assay [6]; 97% in [7]; 66% in assay [8]; 47% in assay [2]. Further, the inhibition at 1 µM in [9] turned out to be 21%.
